PubChem BioAssay AID1421 (Emory University Molecular Libraries Screening Center, 2008)
Calls of active or inactive are those of the source. How the calls were made is not given here.

target: Prostaglandin E2 receptor EP2 subtype (Homo sapiens) (UniProt P43116); assay: compounds shifting PGE2 potency at EP2 – cell-based, human EP2, PGE2 EC50 shift, dose response (AID 1421); details: EP2-expressing cells, PGE2 EC50 shift by compound
Sequence (P43116 whole entry, looked up): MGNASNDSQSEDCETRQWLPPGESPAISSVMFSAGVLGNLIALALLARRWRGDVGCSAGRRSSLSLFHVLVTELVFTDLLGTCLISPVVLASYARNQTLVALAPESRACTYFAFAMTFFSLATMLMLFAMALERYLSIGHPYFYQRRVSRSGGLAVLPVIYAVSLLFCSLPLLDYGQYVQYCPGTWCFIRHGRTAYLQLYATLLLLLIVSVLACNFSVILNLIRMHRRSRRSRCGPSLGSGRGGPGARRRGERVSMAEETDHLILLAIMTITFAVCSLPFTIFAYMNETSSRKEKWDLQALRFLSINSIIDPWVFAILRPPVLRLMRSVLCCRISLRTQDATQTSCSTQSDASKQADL

| SMILES | outcome |
| --- | --- |
| O=C(Nc1ccccc1-c1ccccc1)c1ccc(Br)o1 | active |
| NC(=O)CSc1nc(-c2ccccc2)c(-c2ccccc2)o1 | active |
| Cn1cccc1/C=C1\CC(C(C)(C)C)C/C(=C\c2cccn2C)C1=O (configuration not stated) | active |
| COC(=O)c1sc2nc(N3CCCCC3)c3c(c2c1N)CCCC3 | active |
| Cn1nc(-c2ccccc2)c(-c2nc(-c3cccc(C(F)(F)F)c3)no2)c1Cl | active |
| CC12CCC(C(=O)N(CSC(=S)N/N=C\c3ccccc3Cl)C1=O)C2(C)C (configuration not stated) | active |
| CC(C)OC(=O)CSc1nc(Cc2ccccc2)nc2ccccc12 | active |
| Cc1ccc(Cn2c(=O)n(Cc3ccco3)c(=O)c3ccccc32)cc1 | active |
| CCOc1cc(-c2noc(-c3ccncc3)n2)cc(Br)c1OC | active |
| Cc1cc(C)cc(C(=N)c2ccccc2Cc2cccc3ccccc23)c1 | active |
| CCc1ccccc1NC(=O)/C(=C/c1ccccc1)c1ccccc1 | active |

same assay, conditions: EP2-expressing cells, PGE2 EC50 shift by compound; measured here: PGE2 EC50 at 6.7 uM compound

| SMILES | PGE2 EC50 with compound [nM] |
| --- | --- |
| CCOc1cccc(CNc2ccc(O)cc2)c1OCc1ccccc1Cl | 0.62 |
| O=C(Nc1ccccc1-c1ccccc1)c1ccc(Br)o1 | 1.27 |
| CCSc1ccccc1C(=O)n1nnc2ccccc21 | 1.77 |
| CCn1c2ccc(F)cc2c2nc3ccccc3nc21 | 0.86 |
| CC1=Nc2ccccc2/C1=C/c1sc(=S)n(-c2cccc(C(=O)O)c2)c1O | 0.4 |
| Cc1cc(-c2ccccc2)nc2cc(C(=O)N(Cc3ccccc3)Cc3ccccc3)nn12 | 1.03 |
| O=c1c2c(n3nnnc3n1-c1ccccc1)-c1ccccc1CC21CCCC1 | 1.01 |
| C=C(C)COc1ccc2c(c1)CC[C@@H]1[C@H]3C/C(=N/O)C(=O)[C@]3(C)CC[C@@H]21 | 1.03 |
| CC1CCN(c2nc3c(c(=O)[nH]c(=O)n3C)n2CCCc2ccccc2)CC1 | 1.05 |
| Cc1ccccc1S(=O)(=O)c1c(C)cc(C)n(C(C)C)c1=O | 0.83 |
| C(=N\N1CCN(C2c3ccccc3-c3ccccc32)CC1)/c1cccnc1 | 1.54 |
| N#Cc1sc2nc(N3CCCCC3)c3c(c2c1N)CCCC3 | 1.33 |
| O=C(CN1CCCCCCC1)Nc1ccc(Cl)cc1Cl | 1.11 |
| CCOC(=O)c1c(-c2ccccc2)oc2ccc(OC)cc12 | 1.04 |
| COc1cc(OC)cc(-c2nc(N)n[nH]2)c1 | 0.8 |
| Clc1ccccc1C1NCc2ccccc2-n2cccc21 (configuration not stated) | 0.34 |
| O=C(O)CSc1cc(-c2ccccc2)nc2ccccc12 | 2.55 |
| Oc1ccc(/C=N/N2CCN(C3c4ccccc4-c4ccccc43)CC2)c(O)c1 | 2.52 |
| COc1ccc(-c2cc(C(F)(F)F)nc(NC3CCCC3)n2)cc1OC | 0.7 |
| Cc1ccc(-c2cccc(C(=O)NCc3ccccc3)n2)c2ccccc12 | 0.32 |
| COc1ccc(Oc2cc(C(F)(F)F)nc(N(C)C)n2)cc1 | 0.63 |
| c1ccc(Cn2c(-c3ccccc3)nc3nc4ccccc4nc32)cc1 | 1.08 |

| SMILES | PGE2 EC50 with compound [nM] |
| --- | --- |
| CCSc1nc2c(c(=O)[nH]c(=O)n2C)n1Cc1ccc(Cl)cc1 | 1.24 |
| Cc1cc2cc3c(cc2nc1SCC(=O)OC(C)C)OCO3 | 0.8 |
| CCOC(=O)c1c(C=O)c(C)n(Cc2ccc(C)cc2)c1C | 1.31 |
| O=c1c(O)c(-c2ccccc2)oc2ccc3occc3c12 | 0.74 |
| Cc1ccc(Cn2c(Cc3ccccc3)nc3ccccc32)cc1 | 2.5 |
| COc1ccc(N(Cc2ccccc2)S(=O)(=O)c2ccc(C)cc2)cc1 | 1.05 |
| O=C(O)c1ccc(CNCc2cccc(Cl)c2Cl)cc1 | 0.88 |
| Cc1cc(NC(=O)c2cc(-c3ccncc3)nc3c(C)cccc23)no1 | 1.16 |
| CCOC(=O)c1c(NC(=O)c2ccc(N3C(=O)[C@@H]4[C@H](C3=O)[C@H]3C=C[C@@H]4C3)cc2)sc2c1CC(C)CC2 (some centres not stated) | 1.22 |
| C/C(=N\N(Cc1ccccc1)c1ccccc1)c1cccnc1 | 1.38 |
| Cc1ccc(S(=O)(=O)n2c3ccc(Cl)cc3c3nc(C)sc32)cc1 | 0.44 |
| O=C(O)c1cccc(NN=C2c3ccccc3-c3ccccc32)c1 | 0.8 |
| NC(=O)CSc1nc(-c2ccccc2)c(-c2ccccc2)o1 | 0.94 |
| COc1ccc(-c2cc(C(F)(F)F)nc(NCc3ccco3)n2)cc1OC | 0.53 |
| O=C1CC(O)(c2ccccc2)C(c2ccccc2)=C1c1ccccc1 (configuration not stated) | 0.87 |
| CC(C)(Oc1ccc(Cl)cc1)C(=O)N(Cc1ccccc1)c1ccccn1 | 1.07 |
| CC1(C)Cc2nc3nc(SCC(=O)Nc4ccccc4)nc(N)c3cc2CO1 | 1.4 |
| CC1=CC2C(C(C)C)CCC(C)(O)C2CC1 (configuration not stated) | 0.68 |
| COc1cc2ccccc2cc1C(=O)NC(=S)Nc1cccc(C(=O)O)c1 | 0.75 |
| C=CCC1(C)C(=O)N(c2ccccc2)c2ccccc21 (configuration not stated) | 2.93 |
| O=C(Nc1cccc2cccnc12)c1ccc(Br)o1 | 1.22 |
| O=C(OCC(=O)N1N=C(c2ccc(Cl)cc2)CC1c1ccco1)c1ccco1 (configuration not stated) | 1.63 |

| SMILES | PGE2 EC50 with compound [nM] |
| --- | --- |
| Cc1ccccc1N=C1SCC(=O)N1Cc1ccccc1 | 1.2 |
| COc1cccc(-c2nc(N3CC(C)CC(C)C3)c3ccccc3n2)c1O (configuration not stated) | 1.33 |
| N/C(CSc1nc(-c2ccccc2)c(-c2ccccc2)o1)=N\O | 1.14 |
| O=C(CC(Sc1ccccc1)c1cccs1)c1ccco1 (configuration not stated) | 0.88 |
| COc1ccc(OC)c(/C=C/C(=O)N2CCCc3ccccc32)c1 | 1.13 |
| CC(C)CNC(=O)C(=O)NNC(=O)c1ccco1 | 2.49 |
| COC(=O)c1sccc1NC(=O)c1cc2c(s1)CCCC2 | 1.01 |
| COc1ccc(C2=Nn3c(nnc3-c3ccccc3OC)SC2)cc1OC | 0.93 |
| C=C1CCC2C(CC2(C)C)C(=C)CC/C1=N/O (configuration not stated) | 1.61 |
| c1ccc(CCc2cccnc2)nc1 | 1.62 |
| CCCCOc1ccc(-c2c(C(=O)Nc3ccccc3)c(C)[nH]c(=S)c2C#N)cc1 | 2.8 |
| Cc1noc(C)c1COC(=O)C(c1ccccc1)c1ccccc1 | 1.27 |
| Cc1ccc(Nc2nc(CSc3nnc(-c4ccccc4C)n3C)cs2)cc1 | 1.35 |
| Cc1cc(-c2sccc2C)nc(-n2cccc2)n1 | 2.5 |
| O=C(O)c1cc2cc(F)ccc2[nH]1 | 0.93 |
| Cn1cccc1/C=C1\CC(C(C)(C)C)C/C(=C\c2cccn2C)C1=O (configuration not stated) | 1.44 |
| O=C(Cc1c(F)cccc1Cl)Nc1ccccc1N1CCCCC1 | 2.55 |
| CCOC(=O)c1c(NC(=O)c2ccn(CC)n2)sc2c1CCCC2 | 1.14 |
| Cc1ccc(-n2c(=S)[nH]c3c(oc4ccccc43)c2=O)cc1C | 1.76 |
| Cc1ccc(C)c(CN2C(=O)C(C)Oc3ccc(C)cc32)c1 (configuration not stated) | 0.31 |
| CC1=NN(c2ccc(S(=O)(=O)O)cc2)C(=O)/C1=C\c1ccc(Cl)cc1 | 1.07 |
| O=c1c(C=NCc2ccccc2)c(NCc2ccccc2)nc2ccccn12 | 0.96 |

| SMILES | PGE2 EC50 with compound [nM] |
| --- | --- |
| COC(=O)c1sc2nc(N3CCCCC3)c3c(c2c1N)CCCC3 | 0.85 |
| CCn1c2ccc(Cl)cc2c2nc3ccccc3nc21 | 0.98 |
| CCOc1ccccc1NC(=O)c1c(Br)cnn1C | 1.08 |
| Cc1cc(C)c(N=C2CCCN2Cc2ccccc2)c(C#N)c1 | 1.39 |
| O=C(N=C1SCC(=O)N1c1ccccc1Cl)c1ccccc1 | 1.03 |
| COc1ccc(-n2c(-c3ccccc3)nnc2-c2ccc(Cl)cc2)cc1 | 1.23 |
| O=C(CSc1ncnc2c1oc1ccccc12)Nc1ccccc1F | 1.86 |
| C[C@H](N)[C@H](O)c1ccc(O)c(O)c1 | 1.32 |
| O=C(O)CCCCCCCCCCCc1ccccc1 | 0.88 |
| Nc1cccc(OCc2nc(N)nc(N)c2-c2ccc(Cl)cc2)c1 | 1.24 |
| O=C(c1ccc2c(c1)OCO2)N(Cc1cccs1)C1(C(=O)NC2CCCCC2)CCCCC1 | 1.08 |
| COC(=O)CSc1nc(-c2ccccc2)nc2ccccc12 | 1.02 |
| Cn1nc(-c2ccccc2)c(-c2nc(-c3cccc(C(F)(F)F)c3)no2)c1Cl | 0.81 |
| CC12CCC(C(=O)N(CSC(=S)N/N=C\c3ccccc3Cl)C1=O)C2(C)C (configuration not stated) | 1.7 |
| COc1ccc(S(=O)(=O)N(Cc2ccccc2)Cc2nc(-c3ccccc3)no2)cc1 | 1.16 |
| CCOC(=O)c1c(NC(=O)c2ccc(Br)o2)sc(C)c1CC | 0.94 |
| Cc1ccnc(NS(=O)(=O)c2cccs2)c1 | 1.8 |
| CCOC(=O)c1sc(NC(=O)CCN2CC(C)OC(C)C2)c(C(=O)OCC)c1C (configuration not stated) | 1.11 |
| CC(C)OC(=O)CSc1nc(Cc2ccccc2)nc2ccccc12 | 1.14 |
| C/C(=N\N=C(c1ccccc1)c1ccccc1)c1ccco1 | 0.97 |
| Cc1cc(C)n(-c2nc(C)nc3c2cnn3-c2ccccc2)n1 | 1.43 |
| Cc1ccc(Cn2c(=O)n(Cc3ccco3)c(=O)c3ccccc32)cc1 | 0.78 |

| SMILES | PGE2 EC50 with compound [nM] |
| --- | --- |
| Cc1cccc(NC2=NC(=S)N(c3ccc(C(=O)O)cc3)C23CCCCC3)c1 | 0.8 |
| CCOc1cc(-c2noc(-c3ccncc3)n2)cc(Br)c1OC | 0.84 |
| CCc1cc2cc(C)cc(C)c2nc1SCC(=O)N1CCCC1 | 3.07 |
| O=C(CSCc1cccc(Cl)c1)Nc1ccccc1-c1ccccc1 | 0.74 |
| Cc1cc(C)cc(C(=N)c2ccccc2Cc2cccc3ccccc23)c1 | 1.22 |
| Nc1c(C(=O)Nc2ccccc2F)sc2nc(Cc3ccccc3)cc(C(F)(F)F)c12 | 0.62 |
| CCOc1ccccc1NC(=O)c1ccccc1-c1nc(-c2ccccc2)no1 | 1.14 |
| CCc1ccccc1NC(=O)/C(=C/c1ccccc1)c1ccccc1 | 1.14 |
| COc1cccc2[nH]c3c(N4CCCC(C)C4)ncnc3c12 (configuration not stated) | 23.2 |
| COc1ccc(C(=O)c2ccccc2)c(O)c1 | 0.92 |
| CCCCC(CC)CN1CN(CC(CC)CCCC)CC(C)(N)C1 (configuration not stated) | 1.05 |
| Cc1c(OCc2ccccc2)c(=O)ccn1Cc1ccc(Cl)cc1 | 1.02 |
| COc1cccc2[nH]c3c(N4CCCCC4)ncnc3c12 | 0.6 |
| O=C(O)CCN1C(=O)/C(=C/c2cn(-c3ccccc3)nc2-c2cccs2)SC1=S | 0.33 |
| C=CCc1cc(C=O)cc(OC)c1OCc1c(Cl)cccc1Cl | 0.59 |
| CC[C@@H]1C(=O)OC[C@@H]1Cc1cncn1C | 1.8 |
| C=CCC(=O)OCCCCCCOc1ccc(C(=O)O)cc1 | 0.58 |
| Cc1ccc(C(Sc2ccccc2)C(Cn2cncn2)C(=O)c2ccccc2)cc1 (configuration not stated) | 0.97 |
